From US20240376094A2, “SELECTIVE BCL-XL PROTAC COMPOUNDS AND METHODS OF USE” (Les Laboratoires Servier, priority 2021, published 2024)

What was measured:
Bcl-xL = molecular target: T1, Bcl-xL (Homo sapiens, UniProt Q07817); test: HCT116 Bcl-xL degradation, capillary-based immunoassay (WES); assay type: cell-based; conditions: for DC50: HCT116, 24 h, 9-point serial dilution
T1 construct: Measured levels of Bcl-xL protein of HCT116 cells treated with the tested compounds; host or cells: HCT116
Method: HCT116 cells were purchased from ATCC and cultivated in RPMI 1640 supplemented with 10% heat inactivated fetal bovine serum, penicillin (100 IU/mi), streptomycin (100 μg/ml) and L-glutamine (2 mM). Cells were cultured at 37° C. in a humidified atmosphere containing 5% CO2. Cells were seeded in 96 microwell plates, 24 h later cells were treated with compounds (2-point 10/100 nM and/or 9-point serial dilution to determine DC50; quadruplicates) during 24 h and harvested in lysis buffer containing 10 mM Hepes (pH 7.5), 150 mM KCl, 5 mM MgCl2, 1 mM EDTA, 0.4% TritonX100, protease and phosphatase inhibitors cocktails (Calbiochem).
Protein concentration in the supernatants was determined using the Pierce BCA protein assay kit (Thermo Fisher Scientific). Lysates (1.5 μg/μL) were analyzed using an automated capillary electrophoresis WES system with 2-40 kDa Wes Separation Module (25 capillary cartridges, Proteinsimple), in accordance with the manufacturer's protocols. Antibodies against the following proteins were used: Bcl-xL (#2764, Cell Signaling Technology, 1:50) and cofilin (#5175, Cell Signaling Technology, 1:1000). Signals were detected with an HRP-conjugated secondary anti-rabbit antibody (#042-206, Proteinsimple) and were quantified using Compass software (version 4.0, Proteinsimple).
Bcl-xL level was calculated by normalizing Bcl-xL values to cofilin and expressed as a percentage of the normalized value of the untreated cells. DC50 were calculated using standard four-parametric curve fitting. DC50 is defined as the compound concentration at which Bcl-xL is reduced to 50% of that measured for the control. Measured levels of Bcl-xL protein of HCT116 cells treated with the tested compounds at 2-point 10 nM/100 nM and/or 9-point for DC50 determination are shown in Table 15.

MOLT-4 cells = test: MOLT-4 cell viability, CTG assay; assay type: cell-based; conditions: Homo sapiens, MOLT-4, 48 h
Excerpt: The MTT colorimetric assay is based on the mitochondrial reduction of tetrazolium salt by living cells. The viable cell number is proportional to the production of formazan salts, which can be read spectrophotometrically at 540 nm. The CTG luminescent assay (CellTiter GLO, Promega) is based on a reagent which lyses cells and measures total adenosine triphosphate (ATP) content. The viable cell number is proportional to the production of ATP.
MOLT-4 cells were purchased from ATCC and cultivated in RPMI 1640 supplemented with 10% heat inactivated fetal bovine serum, penicillin (100 IU/mi), streptomycin (100 μg/ml) and L-glutamine (2 mM). Cells were cultured at 37° C. in a humidified atmosphere containing 5% […].
For CTG assay, cells were seeded in 384 microwell plates (40 μL per well) and exposed to the compounds for 48 h (11-point serial dilution with 5-fold factor, triplicates). At the end of incubation time, 40 μL of CTG solution were added per well. Wells were mixed thoroughly, and plates were incubated at room temperature for 10 minutes to stabilize luminescent signals prior to reading using a luminescence reader (PHERAStar FSX Reader, BMG Labtech).
IC50, were calculated using standard four-parametric curve fitting. IC50 is defined as the compound concentration at which the MTT or CTG signal is reduced to 50% of that measured for the control. Results shown in Table 14 represent the mean of at least 2 independent experiments.

T1 sequence (Q07817 whole entry): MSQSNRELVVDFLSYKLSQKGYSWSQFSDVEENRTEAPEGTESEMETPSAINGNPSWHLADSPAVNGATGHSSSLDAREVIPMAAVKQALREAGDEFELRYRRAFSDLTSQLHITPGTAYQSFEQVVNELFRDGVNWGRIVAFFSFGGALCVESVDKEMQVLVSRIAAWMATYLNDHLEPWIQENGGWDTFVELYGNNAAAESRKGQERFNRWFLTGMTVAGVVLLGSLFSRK

Compound | DC50 (Bcl-xL) [nM] | IC50 (MOLT-4 cells) [nM] | remaining activity at 0.01 µM (Bcl-xL; HCT-116, HCT116, 10 nM, 24 h, % of untreated cells) [%] | remaining activity at 0.1 µM (Bcl-xL; HCT-116, HCT116, 100 nM, 24 h, % of untreated cells) [%]
Cc1c(Nc2nc3ccccc3s2)nnc2c1CCCN2c1ccc(-c2cnn(CC34CC5(C)CC(C)(C3)CC(OCCN(C)CCCCCC(=O)N3CCC(c6ccc7c(c6)CN(C6CCC(=O)NC6=O)C7=O)CC3)(C5)C4)c2C)c(C(=O)O)n1 (stereo not drawn) [Example 67, 6-[3-(1,3-benzothiazol-2-ylamino)-4-methyl-6,7-dihydro-5H-pyrido[2,3-c]pyridazin-8-yl]-3-[1-[[3-[2-[[6-[4-[2-(2,6-dioxo-3-piperidyl)-1-oxo-isoindolin-5-yl]-1-piperidyl]-6-oxo-hexyl]-methyl-amino]ethoxy]-5,7-dimethyl-1-adamantyl]methyl]-5-methyl-pyrazol-4-yl]pyridine-2-carboxylic acid] | > 316 | 24.2 | – | –
Cc1c(Nc2nc3ccccc3s2)nnc2c1CCCN2c1ccc(-c2cnn(CC34CC5(C)CC(C)(C3)CC(OCCN(C)CCCCCCCC(=O)N3CCC(c6ccc7c(c6)CN(C6CCC(=O)NC6=O)C7=O)CC3)(C5)C4)c2C)c(C(=O)O)n1 (stereo not drawn) [Example 68, 6-[3-(1,3-benzothiazol-2-ylamino)-4-methyl-6,7-dihydro-5H-pyrido[2,3-c]pyridazin-8-yl]-3-[1-[[3-[2-[[8-[4-[2-(2,6-dioxo-3-piperidyl)-1-oxo-isoindolin-5-yl]-1-piperidyl]-8-oxo-octyl]-methyl-amino]ethoxy]-5,7-dimethyl-1-adamantyl]methyl]-5-methyl-pyrazol-4-yl]pyridine-2-carboxylic acid] | > 316 | 15.3 | – | –
Cc1c(Nc2nc3ccccc3s2)nnc2c1CCCN2c1ccc(-c2cnn(CC34CC5(C)CC(C)(C3)CC(OCCN(C)CCCCCCCCCC(=O)N3CCC(c6ccc7c(c6)CN(C6CCC(=O)NC6=O)C7=O)CC3)(C5)C4)c2C)c(C(=O)O)n1 (stereo not drawn) [Example 70, 6-[3-(1,3-benzothiazol-2-ylamino)-4-methyl-6,7-dihydro-5H-pyrido[2,3-c]pyridazin-8-yl]-3-[1-[[3-[2-[[10-[4-[2-(2,6-dioxo-3-piperidyl)-1-oxo-isoindolin-5-yl]-1-piperidyl]-10-oxo-decyl]-methyl-amino]ethoxy]-5,7-dimethyl-1-adamantyl]methyl]-5-methyl-pyrazol-4-yl]pyridine-2-carboxylic acid] | – | 7.48 | 101 | 90
Cc1c(Nc2nc3ccccc3s2)nnc2c1CCCN2c1ccc(-c2cnn(CC34CC5(C)CC(C)(C3)CC(OCCN(C)CCCCCCCCC(=O)N3CCC(c6ccc7c(c6)CN(C6CCC(=O)NC6=O)C7=O)CC3)(C5)C4)c2C)c(C(=O)O)n1 (stereo not drawn) [Example 71, 6-[3-(1,3-benzothiazol-2-ylamino)-4-methyl-6,7-dihydro-5H-pyrido[2,3-c]pyridazin-8-yl]-3-[1-[[3-[2-[[9-[4-[2-(2,6-dioxo-3-piperidyl)-1-oxo-isoindolin-5-yl]-1-piperidyl]-9-oxo-nonyl]-methyl-amino]ethoxy]-5,7-dimethyl-1-adamantyl]methyl]-5-methyl-pyrazol-4-yl]pyridine-2-carboxylic acid] | > 316 | 10.2 | – | –
Cc1c(Nc2nc3ccccc3s2)nnc2c1CCCN2c1ccc(-c2cnn(CC34CC5(C)CC(C)(C3)CC(OCCN(C)CCCCCCCCCCC(=O)N3CCC(c6ccc7c(c6)CN(C6CCC(=O)NC6=O)C7=O)CC3)(C5)C4)c2C)c(C(=O)O)n1 (stereo not drawn) [Example 75, 6-[3-(1,3-benzothiazol-2-ylamino)-4-methyl-6,7-dihydro-5H-pyrido[2,3-c]pyridazin-8-yl]-3-[1-[[3-[2-[[11-[4-[2-(2,6-dioxo-3-piperidyl)-1-oxo-isoindolin-5-yl]-1-piperidyl]-11-oxo-undecyl]-methyl-amino]ethoxy]-5,7-dimethyl-1-adamantyl]methyl]-5-methyl-pyrazol-4-yl]pyridine-2-carboxylic acid] | – | 5.85 | – | –

Other lines, results leading:

DC50 (Bcl-xL) [nM] | IC50 (MOLT-4 cells) [nM] | remaining activity at 0.01 µM (Bcl-xL; HCT-116, HCT116, 10 nM, 24 h, % of untreated cells) [%] | remaining activity at 0.1 µM (Bcl-xL; HCT-116, HCT116, 100 nM, 24 h, % of untreated cells) [%] | Compound
0.711 | 5.14 | – | – | Cc1c(Nc2nc3ccccc3s2)nnc2c1CCCN2c1ccc(-c2cnn(CC34CC5(C)CC(C)(C3)CC(OCCN(C)CCCCCCCCCCCC(=O)N3CCC(c6ccc7c(c6)CN(C6CCC(=O)NC6=O)C7=O)CC3)(C5)C4)c2C)c(C(=O)O)n1 (stereo not drawn) [Example 69, 6-[3-(1,3-benzothiazol-2-ylamino)-4-methyl-6,7-dihydro-5H-pyrido[2,3-c]pyridazin-8-yl]-3-[1-[[3-[2-[[12-[4-[2-(2,6-dioxo-3-piperidyl)-1-oxo-isoindolin-5-yl]-1-piperidyl]-12-oxo-dodecyl]-methyl-amino]ethoxy]-5,7-dimethyl-1-adamantyl]methyl]-5-methyl-pyrazol-4-yl]pyridine-2-carboxylic acid]
0.133 | – | – | – | Cc1c(Nc2nc3ccccc3s2)nnc2c1CCCN2c1ccc(-c2cnn(CC34CC5(C)CC(C)(C3)CC(OCCN(C)CCCCCCCCCCCCCCCC(=O)N3CCC(c6ccc7c(c6)CN(C6CCC(=O)NC6=O)C7=O)CC3)(C5)C4)c2C)c(C(=O)O)n1 (stereo not drawn) [Example 74, 6-[3-(1,3-benzothiazol-2-ylamino)-4-methyl-6,7-dihydro-5H-pyrido[2,3-c]pyridazin-8-yl]-3-[1-[[3-[2-[[16-[4-[2-(2,6-dioxo-3-piperidyl)-1-oxo-isoindolin-5-yl]-1-piperidyl]-16-oxo-hexadecyl]-methyl-amino]ethoxy]-5,7-dimethyl-1-adamantyl]methyl]-5-methyl-pyrazol-4-yl]pyridine-2-carboxylic acid]
– | 4.54 | – | – | CN[C@@H](C)C(=O)N[C@H](C(=O)N1CCC[C@H]1c1nc(C(=O)c2cccc(OCCCCN(C)CCOC34CC5(C)CC(C)(CC(Cn6ncc(-c7ccc(N8CCCc9c8nnc(Nc8nc%10ccccc%10s8)c9C)nc7C(=O)O)c6C)(C5)C3)C4)c2)cs1)C1CCCCC1 [Example 99, 6-[3-(1,3-benzothiazol-2-ylamino)-4-methyl-6,7-dihydro-5H-pyrido[2,3-c]pyridazin-8-yl]-3-[1-[[3-[2-[4-[3-[2-[(2S)-1-[(2S)-2-cyclohexyl-2-[[(2S)-2-(methylamino)propanoyl]amino]acetyl]pyrrolidin-2-yl]thiazole-4-carbonyl]phenoxy]butyl-methyl-amino]ethoxy]-5,7-dimethyl-1-adamantyl]methyl]-5-methyl-pyrazol-4-yl]pyridine-2-carboxylic acid]
– | 8.41 | – | – | CN[C@@H](C)C(=O)N[C@H](C(=O)N1CCC[C@H]1c1nc(C(=O)c2cccc(OCCCCCCCCCCCCCCN(C)CCOC34CC5(C)CC(C)(CC(Cn6ncc(-c7ccc(N8CCCc9c8nnc(Nc8nc%10ccccc%10s8)c9C)nc7C(=O)O)c6C)(C5)C3)C4)c2)cs1)C1CCCCC1 [Example 100, 6-[3-(1,3-benzothiazol-2-ylamino)-4-methyl-6,7-dihydro-5H-pyrido[2,3-c]pyridazin-8-yl]-3-[1-[[3-[2-[14-[3-[2-[(2S)-1-[(2S)-2-cyclohexyl-2-[[(2S)-2-(methylamino)propanoyl]amino]acetyl]pyrrolidin-2-yl]thiazole-4-carbonyl]phenoxy]tetradecyl-methyl-amino]ethoxy]-5,7-dimethyl-1-adamantyl]methyl]-5-methyl-pyrazol-4-yl]pyridine-2-carboxylic acid]
